In ChEMBL document CHEMBL1201862, “PubChem BioAssay data set” (2004):
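Cultured in 96-well plates, cells were exposed to test compound for 48 hours across five concentrations. The concentration for 50% growth inhibition is given as GI50.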 Activity calls are given as the source filed them. Cut-off read from the data, not from the text of the source: active = GI50 up to about 1.1 µM and inactive = higher.

Legend:
Assay in all cases: inhibition of tumour cell growth, NCI panel, 48 h
SK-MEL-2 = tested on: SK-MEL-2
KM12 = tested on: KM12
HCT-15 = tested on: HCT-15
A549 = tested on: A549
SK-MEL-28 = tested on: SK-MEL-28
SK-OV-3 = tested on: SK-OV-3
COLO 205 = tested on: COLO 205
A498 = tested on: A498
SF-539 = tested on: SF-539
Malme-3M = tested on: Malme-3M
OVCAR-3 = tested on: OVCAR-3
SNB-19 = tested on: SNB-19
OVCAR-4 = tested on: OVCAR-4
UACC-62 = tested on: UACC-62
NCI-H23 = tested on: NCI-H23
CCRF-CEM = tested on: CCRF-CEM
SF-295 = tested on: SF-295
HOP-18 = tested on: HOP-18
TK-10 = tested on: TK-10
LXFL 529 = tested on: LXFL 529
UO-31 = tested on: UO-31
786-0 = tested on: 786-0
ACHN = tested on: ACHN
NCI-H522 = tested on: NCI-H522
HCT-116 = tested on: HCT-116
SNB-75 = tested on: SNB-75
OVCAR-8 = tested on: OVCAR-8
SK-MEL-5 = tested on: SK-MEL-5
M14 = tested on: M14
LOX IMVI = tested on: LOX IMVI
HOP-92 = tested on: HOP-92
HL-60 = tested on: HL-60
IGROV-1 = tested on: IGROV-1
OVCAR-5 = tested on: OVCAR-5
RXF 393 = tested on: RXF 393
M19-MEL = tested on: M19-MEL
K562 = tested on: K562
CAKI-1 = tested on: CAKI-1
SF-268 = tested on: SF-268
MOLT-4 = tested on: MOLT-4
DLD-1 = tested on: DLD-1
DMS-273 = tested on: DMS-273
SW-620 = tested on: SW-620
HT-29 = tested on: HT-29
U-251 = tested on: U-251
RPMI-8226 = tested on: RPMI-8226
HOP-62 = tested on: HOP-62
HCC 2998 = tested on: HCC 2998
SN12C = tested on: SN12C
NCI-H460 = tested on: NCI-H460
EKVX = tested on: EKVX
XF498 = tested on: XF498
DMS-114 = tested on: DMS-114
SR = tested on: SR
SNB-78 = tested on: SNB-78
NCI-H226 = tested on: NCI-H226
UACC-257 = tested on: UACC-257
KM-20L2 = tested on: KM-20L2

N#Cc1c(-c2ccco2)cc(-c2ccc(NCc3nc4ccccc4[nH]3)cc2)nc1N
GI50 (SK-MEL-2): 20.3 µM (inactive)
GI50 (KM12): 18.7 µM (inactive)
GI50 (HCT-15): 23.6 µM
GI50 (A549): 29.8 µM (inactive)
GI50 (SK-MEL-28): 27.5 µM (inactive)
GI50 (SK-OV-3): 50.5 µM (inactive)
GI50 (COLO 205): 21.6 µM (inactive)
GI50 (A498): 25 µM (inactive)
GI50 (SF-539): 19.5 µM (inactive)
GI50 (Malme-3M): 24.5 µM (inactive)
GI50 (OVCAR-3): 20.1 µM (inactive)
GI50 (SNB-19): 20.5 µM (inactive)
GI50 (OVCAR-4): 22.8 µM (inactive)
GI50 (UACC-62): 16.6 µM (inactive)
GI50 (NCI-H23): 20.2 µM (inactive)
GI50 (CCRF-CEM): 27.4 µM (inactive)
GI50 (SF-295): 19.5 µM (inactive)
GI50 (HOP-18): 24.4 µM (inactive)
GI50 (TK-10): 26.4 µM (inactive)
GI50 (LXFL 529): 17.9 µM (inactive)
GI50 (UO-31): 16.6 µM (inactive)
GI50 (786-0): 28.6 µM (inactive)
GI50 (ACHN): 26.5 µM (inactive)
GI50 (NCI-H522): 18.8 µM (inactive)
GI50 (HCT-116): 18.9 µM (inactive)
GI50 (SNB-75): 26.4 µM (inactive)
GI50 (OVCAR-8): 20.4 µM (inactive)
GI50 (SK-MEL-5): 16 µM (inactive)
GI50 (M14): 19.5 µM (inactive)
GI50 (LOX IMVI): 18.7 µM (inactive)
GI50 (HOP-92): 21.4 µM (inactive)
GI50 (HL-60): 20 µM (inactive)
GI50 (IGROV-1): 23 µM (inactive)
GI50 (OVCAR-5): 32.3 µM (inactive)
GI50 (RXF 393): 16 µM (inactive)
GI50 (M19-MEL): 25.1 µM (inactive)
GI50 (K562): 24.3 µM (inactive)
GI50 (CAKI-1): 33.8 µM (inactive)
GI50 (SF-268): 30.1 µM (inactive)
GI50 (MOLT-4): 15.3 µM (inactive)
GI50 (DLD-1): 28.8 µM (inactive)
GI50 (DMS-273): 18 µM (inactive)
GI50 (SW-620): 35.3 µM (inactive)
GI50 (HT-29): 32.6 µM (inactive)
GI50 (U-251): 25.9 µM (inactive)
GI50 (RPMI-8226): 19.2 µM (inactive)
GI50 (HOP-62): 26.7 µM (inactive)
GI50 (HCC 2998): 21.8 µM (inactive)
GI50 (SN12C): 22.5 µM (inactive)
GI50 (NCI-H460): 18.1 µM (inactive)

CC(=O)Nc1ccc(C(=O)N2N=C(C)/C(=C/c3ccc(O)cc3)C2=O)cc1
GI50 (SK-MEL-2): > 100 µM (inactive)
GI50 (KM12): > 100 µM (inactive)
GI50 (HCT-15): > 100 µM
GI50 (A549): > 100 µM (inactive)
GI50 (SK-MEL-28): > 100 µM (inactive)
GI50 (COLO 205): > 100 µM (inactive)
GI50 (SF-539): > 100 µM (inactive)
GI50 (Malme-3M): > 100 µM (inactive)
GI50 (OVCAR-3): > 100 µM (inactive)
GI50 (SNB-19): > 100 µM (inactive)
GI50 (OVCAR-4): > 100 µM (inactive)
GI50 (EKVX): > 100 µM (inactive)
GI50 (NCI-H23): > 100 µM (inactive)
GI50 (XF498): > 100 µM (inactive)
GI50 (CCRF-CEM): > 100 µM (inactive)
GI50 (SF-295): > 100 µM (inactive)
GI50 (DMS-114): > 100 µM (inactive)
GI50 (TK-10): > 100 µM (inactive)
GI50 (SR): > 100 µM (inactive)
GI50 (UO-31): > 100 µM (inactive)
GI50 (786-0): > 100 µM (inactive)
GI50 (ACHN): > 100 µM (inactive)
GI50 (NCI-H522): > 100 µM (inactive)
GI50 (HCT-116): > 100 µM (inactive)
GI50 (SNB-75): > 100 µM (inactive)
GI50 (OVCAR-8): > 100 µM (inactive)
GI50 (SK-MEL-5): > 100 µM (inactive)
GI50 (SNB-78): > 100 µM (inactive)
GI50 (LOX IMVI): > 100 µM (inactive)
GI50 (HL-60): > 100 µM (inactive)
GI50 (OVCAR-5): > 100 µM (inactive)
GI50 (M19-MEL): > 100 µM (inactive)
GI50 (K562): > 100 µM (inactive)
GI50 (CAKI-1): > 100 µM (inactive)
GI50 (SF-268): > 100 µM (inactive)
GI50 (NCI-H226): > 100 µM (inactive)
GI50 (MOLT-4): > 100 µM (inactive)
GI50 (DLD-1): > 100 µM (inactive)
GI50 (DMS-273): > 100 µM (inactive)
GI50 (SW-620): > 100 µM (inactive)
GI50 (UACC-257): > 100 µM (inactive)
GI50 (HT-29): > 100 µM (inactive)
GI50 (U-251): > 100 µM (inactive)
GI50 (RPMI-8226): > 100 µM (inactive)
GI50 (HOP-62): > 100 µM (inactive)
GI50 (HCC 2998): > 100 µM (inactive)
GI50 (SN12C): > 100 µM (inactive)
GI50 (NCI-H460): > 100 µM (inactive)

COc1cccc2ccc(C(=O)c3ccccc3)nc12
GI50 (SK-MEL-2): > 100 µM (inactive)
GI50 (KM12): > 100 µM (inactive)
GI50 (HCT-15): > 100 µM
GI50 (A549): > 100 µM (inactive)
GI50 (SK-MEL-28): 88.9 µM (inactive)
GI50 (COLO 205): > 100 µM (inactive)
GI50 (SF-539): > 100 µM (inactive)
GI50 (Malme-3M): > 100 µM (inactive)
GI50 (OVCAR-3): > 100 µM (inactive)
GI50 (OVCAR-4): > 100 µM (inactive)
GI50 (UACC-62): > 100 µM (inactive)
GI50 (EKVX): > 100 µM (inactive)
GI50 (NCI-H23): > 100 µM (inactive)
GI50 (XF498): > 100 µM (inactive)
GI50 (CCRF-CEM): 79.4 µM (inactive)
GI50 (SF-295): > 100 µM (inactive)
GI50 (TK-10): > 100 µM (inactive)
GI50 (LXFL 529): 77.8 µM (inactive)
GI50 (SR): > 100 µM (inactive)
GI50 (UO-31): 2.22 µM (inactive)
GI50 (786-0): > 100 µM (inactive)
GI50 (ACHN): > 100 µM (inactive)
GI50 (NCI-H522): > 100 µM (inactive)
GI50 (HCT-116): > 100 µM (inactive)
GI50 (SNB-75): > 100 µM (inactive)
GI50 (OVCAR-8): > 100 µM (inactive)
GI50 (SK-MEL-5): > 100 µM (inactive)
GI50 (M14): > 100 µM (inactive)
GI50 (SNB-78): > 100 µM (inactive)
GI50 (LOX IMVI): > 100 µM (inactive)
GI50 (IGROV-1): > 100 µM (inactive)
GI50 (OVCAR-5): > 100 µM (inactive)
GI50 (K562): > 100 µM (inactive)
GI50 (CAKI-1): > 100 µM (inactive)
GI50 (SF-268): > 100 µM (inactive)
GI50 (NCI-H226): > 100 µM (inactive)
GI50 (MOLT-4): > 100 µM (inactive)
GI50 (KM-20L2): > 100 µM (inactive)
GI50 (DLD-1): > 100 µM (inactive)
GI50 (DMS-273): > 100 µM (inactive)
GI50 (SW-620): > 100 µM (inactive)
GI50 (U-251): > 100 µM (inactive)
GI50 (RPMI-8226): > 100 µM (inactive)
GI50 (HOP-62): > 100 µM (inactive)
GI50 (HCC 2998): > 100 µM (inactive)
GI50 (SN12C): > 100 µM (inactive)
